Several values for one entry are separate records, joined by “and”; a condition that tells them apart may be missing. Equal values may be shown once.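 Tested at 5 concentrations; 48 h exposure; 96-well plates; endpoints linearly interpolated, else capped at highest concentration. Here, GI50 denotes the concentration required for 50% inhibition of growth. Definition used: TGI = concentration required for complete inhibition of growth.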 Bounds are passed on as bounds.

Holding throughout (experiment): NCI tumour cell line growth inhibition, 48 h
Test [1] deals with OVCAR-5 ovarian.
Test [2] concerns SN12C renal.
The subject of test [3] is MOLT-4 leukemia.
The subject of test [4] is M14 melanoma.
Test [5] relates to NCI/ADR-RES ovarian.
The subject of test [6] is SR leukemia.
For test [7], the system named is NCI-H460 lung.
Test [8] deals with HS 578T breast.

For `S=c1ssc(Oc2ccccc2)c1Cl`, the GI50 in test [1] is 23.2 µM; in test [2], 11.7 µM; in test [3], 0.73 µM; in test [4] it was 18 µM; in test [5] it was 16.4 µM; in test [6], 0.605 µM. Moreover, the GI50 in test [7] was 16.9 µM. In addition, the TGI in test [1] is 49.9 µM; in test [2], 28.2 µM; in test [3], over 100 µM; in test [4] it was 43.2 µM; in test [5], 35.4 µM; in test [6] it was over 100 µM. In test [7], this compound returned a TGI of 33.1 µM.

In the case of `CCCCCCCCCCCCOC1C(C(COC2OC(C3COC(C)(C)O3)C3OC(C)(C)OC23)NC(=O)NS(=O)(=O)c2ccccc2)OC2OC(C)(C)OC21` (stereo not given), the GI50 in test [1] was 4.34 µM; in test [2], 3.95 µM; in test [3], 0.0149 µM; in test [4], 5.23 µM; in test [5], 7.18 µM; in test [7] it was 3.04 µM. The GI50 in test [8] is 2.9 µM. Also, the TGI in test [1] came out at 13.8 µM; in test [2], 15.2 µM; in test [3], 0.12 µM; in test [4] it was 18.9 µM; in test [5], 23.6 µM; in test [7] it was 12.6 µM. For the same compound, in test [8], the TGI amounted to 11.1 µM.

For the compound `CC[C@@]1(OC(=O)CN)C(=O)OCc2c1cc1n(c2=O)Cc2cc3c(N)cccc3nc2-1`, the GI50 in test [1] was 0.045 µM; in test [2], under 0.01 µM; in test [3], under 0.01 µM; in test [5], under 0.01 µM; in test [6], under 0.01 µM; in test [7], under 0.01 µM. For the same compound, the GI50 in test [8] is over 100 µM. Further, the TGI in test [1] is 1.12 µM; in test [2], 1.1 µM; in test [3], 27.7 µM; in test [5], 0.258 µM; in test [7], 0.114 µM; in test [8] it was over 100 µM.

Take `CCOC(=O)/C(=C\c1ccc(C#N)cc1)C(C)=O`: the TGI in test [1] was over 100 µM; in test [2], 62.8 µM; in test [3], over 100 µM; in test [4] it was 95.1 µM; in test [5], over 100 µM; in test [7] it was over 100 µM. The same compound displayed a TGI in test [8] of 88.6 µM.

With `CC(=O)OCC(=O)[C@@]12OC(C)(C)O[C@@H]1C[C@H]1[C@@H]3CC=C4C[C@@H](O)CC[C@]4(C)[C@H]3CC[C@@]12C`, the TGI in test [1], in test [2], in test [3], in test [4], in test [5] and in test [6] was over 100 µM in each case. In test [8], this compound showed a TGI of 63.4 µM.

In the case of `Cc1ccc2nc(-c3ccccc3)c(N=O)n2c1`, the TGI was over 100 µM in test [1]; 61 µM in test [2]; over 100 µM in test [3]; over 100 µM in test [4]; over 100 µM in test [5]; over 100 µM in test [7]. Also, the TGI in test [8] is over 100 µM.

`O=C(c1ccccc1)C(Br)C(Br)c1cccc([N+](=O)[O-])c1` (stereo not given): the GI50 in test [1] is 2.46 µM; in test [2] it was 1.88 µM; in test [3], 2.09 µM; in test [4], 1.78 µM; in test [5] it was 2.88 µM; in test [6] it was 1.2 µM. Also, the GI50 in test [7] is 3.12 µM. Besides, the TGI in test [1] came to 5.65 µM; in test [2] it was 4.21 µM; in test [3] it was 5.39 µM; in test [4], 3.17 µM; in test [5], 8.82 µM; in test [6], 4.53 µM. In test [7], this compound registered a TGI of 14.9 µM.

On to `Cc1cc(=O)[nH]c2cc3c(c4c(n3Cc3ccc(Cl)cc3Cl)CC(C)(C)CC4=O)c(O)c12`, for which the GI50 in test [2] is over 100 µM; in test [3] it was over 100 µM; in test [4], 71.3 µM; in test [5] it was over 100 µM; in test [6] it was 25.2 µM; in test [7], 79.5 µM. In test [8], the GI50 is 49.2 µM. In addition, the TGI in test [2], in test [3], in test [4], in test [5], in test [6] and in test [7] was over 100 µM throughout. In addition, the TGI in test [8] was over 100 µM.

As for `CCC[CH2][Sn]([CH2]CCC)([CH2]CCC)[O]C(=O)c1ccc(Cl)cc1Cl`, the GI50 in test [1] was 0.135 µM; in test [2] it was 0.145 µM; in test [3] it was 0.215 µM; in test [4], 0.147 µM; in test [5], 0.177 µM; in test [7] it was 0.143 µM. Also, the GI50 in test [8] is 0.173 µM. In addition, the TGI in test [1] was 0.315 µM; in test [2] it was 0.35 µM; in test [3], 1.71 µM; in test [4] it was 0.29 µM; in test [5], 0.378 µM; in test [7] it was 0.299 µM. In test [8], this compound gave a TGI of 0.538 µM.

For the compound `COc1ccc(C(=O)/C=C/c2ccc3c(c2)OCO3)c(OCc2ccccc2)c1`, the TGI was over 100 µM in test [1]; over 100 µM in test [2]; over 26.4 µM in test [3]; over 100 µM in test [4]; over 27.1 µM in test [6]; over 100 µM in test [7]. This compound also yielded a TGI in test [8] of over 100 µM.

Regarding `CNC(=O)CC1NC(=O)c2csc(n2)-c2ccc(-c3nc(C4=NC(C(=O)N5CCCC5C(N)=O)CO4)cs3)nc2-c2csc(n2)-c2csc(n2)C(C(C)C)NC(=O)CNC(=O)c2csc(n2)C(C(C)C)NC(=O)c2nc1sc2C` (stereo not given), the GI50 in test [2] is over 25 µM; in test [3], 1.63 µM; in test [5] it was over 25 µM; in test [6], under 0.001 µM; in test [7], over 25 µM; in test [8] it was under 0.001 µM. Further, the TGI in test [2], in test [3], in test [5] and in test [7] was over 25 µM in each case.

As to `COc1cccc(OCCCN)c1-c1cc(Nc2cnc(C#N)cn2)n[nH]1`, the GI50 in test [1] was 0.0381 µM and 0.043 µM; in test [2], 0.189 µM and 0.13 µM; in test [3], 0.00391 µM; in test [4], 0.00276 µM; in test [5] it was 0.071 µM and 0.054 µM; in test [6] it was 0.0032 µM. The GI50 in test [7] was 0.0487 µM and 0.0436 µM. Further, the TGI in test [1] turned out to be 15.2 µM; in test [2] it was 10.8 µM; in test [3], 5.69 µM; in test [4], 0.0135 µM; in test [5], 17.3 µM; in test [6], 1.25 µM. Further, in test [7], the TGI was 12.6 µM.

The values above are taken from PubChem BioAssay (NCI).
